Reference: EP2292587A1, “PHARMACEUTICAL COMPOSITION FOR INHIBITING THE TRANSCRIPTION FACTOR INDUCIBLE BY HYPOXIA, MODULATORS OF PATHOLOGICAL PROCESSES OF ANGIOGENESIS, ONCOGENESIS, INFLAMMATION, APOPTOSIS, AND CELLULAR THERAPY” (Fundacion De La Comunidad Valenciana Centro De …, priority 2008, dated 2009)

Columns and labels:
[1] = test system: human dental pulp stem cells; test: Annexin V/PI apoptosis and death in dental pulp stem cells; format: cell-based
Protocol: The apoptosis studies were conducted from cell cultures subjected to normoxic and hypoxic conditions in the presence and absence of the compound at 0.5 µM. The presence of phosphatidylserine in the outer part of the plasma membrane, characteristic of apoptotic processes, was detected using Annexin V (fluorescent dye Annexin V-FITC Apoptosis Detection Kit (BD Pharmingen, BD Biosciences) according to the manufacturer's instructions. The cells subjected to the different conditions were incubated with Annexin V for 30 minutes at 4°C. The cells were then incubated with propidium iodide (PI) and analyzed in a FACScalibur flow cytometer ([…]). PI-/AnnexinV+ cells were defined as early apoptotic cells, PI+/AnnexinV+ cells as late apoptotic cells and PI+/AnnexinV- cells as dead cells. Therefore, the number of total apoptotic cells will be the sum of early and late apoptotic cells.

[2] = test system: medaka (Oryzias latipes) embryos; test: toxicity on medaka embryos; format: in vivo
Protocol: In the first place, for the zebrafish embryos, various experiments were performed with 10, 6 and 4 embryos per well in a volume of 100 microl, in early (between 1 and 8) and late (more than 20) stages of 1 x Yamamoto buffer, culturing the embryos at 26°C for 24 hours, and the compound FM19G11 was subsequently added at concentrations of 10 microM and 50 microM with negative controls without additives to analyze the endogenous mortality of the embryos and with 1% and 5% DMSO (solvent of the compound) to analyze the mortality of the solvent. In all the cases the solvent induced a high lethality between 60% and 90%.
The same experiments were performed using medaka embryos for which DMSO has not lethal effects at concentrations less than 5%. Six embryos per well, a final volume of 100 µl and independent experiments with embryos in blastula and neurula stages were used.
To prevent the possibility that FM19G11 may not be traversing the protective layer of the embryo (chorion), the compound at a concentration of 0.5 mM was microinjected into the chorionic space (between the embryo and the chorion). Experiment 1: n=15, 20% induced mortality, DMSO control = 0%. The result was the same, no anomaly being observed in the development of the embryo, nor any effect on the viability of the injected embryos. The images of Figure 19 show medaka embryos subjected to the treatment with FM19G11 at 50 microM for 4 days (A) 10 medaka embryos in a well of a multi-well plate; B and C, photos of embryos treated with 50 microM FM19G11 for 1 day; and D a photo of a medaka embryo which was not treated with the compound.

[3] = test system: ATR; test: activation kinetics of ATR (Western blot), HCT116/p53+/+; format: cell-based, human; conditions: 0.5 µM, after 1 hour
Description: To determine the degree of involvement of p53 in the possible effects caused by FM19G11, a HCT116 colon cancer cell line with expression of p53 and the same HCT116 line in which p53 was inactivated by homologous recombination were used (Bunz, F, Dutriaux, A, Lengauer, C, Waldman, T, Zhou, S, Brown, JP et al., (1998) Requirement for p53 and p21 to sustain G2 arrest after DNA damage. Science 282: 1497-501; Bunz, F, Hwang, PM, Torrance, C, Waldman, T, Zhang, Y, Dillehay, L et al., (1999) Disruption of p53 in human cancer cells alters the responses to therapeutic agents. J Clin Invest 104: 263-9.). The HCT116/p53^+/+ and HCT116/p53^-/- cells were exposed to FM19G11 (0.5 µM) at different times, the phosphorylation (activation) pattern of the ATR protein and of p53 which can be phosphorylated by ATR (Tibbetts, RS, Brumbaugh, KM, Williams, JM, Sarkaria, JN, Cliby, WA, Shieh, SY et al., (1999) A role for ATR in the DNA damage-induced phosphorylation of p53. Genes Dev 13: 152-7.), in p53-proficient HCT116 cells, as well as ATR in p53-deficient cells being analyzed (Figure 23). […] This quick activation of ATR coincides with that of p53 in HCT116/p53^+/+ cells after 1 hour of treatment with FM19G11 (0.5 µM), but the activation of p53 remains virtually on the expression of cells without drug, for the different times analyzed.

[4] = test system: HCT116/p53+/+ cells; test: cell cycle distribution by flow cytometry, HCT116/p53+/+; format: cell-based, human
Description: (§1) It was investigated if the activation of DDR by FM19G11 caused a delay in the cycle progress through the G1/S phases in HCT116 tumor cells, as has been described for other DNA-damaging agents (.Lim, DS, Kim, ST, Xu, B, Maser, RS, Lin, J, Petrini, JH et al., (2000) ATM phosphorylates p95/nbs1 in an S-phase checkpoint pathway. Nature 404: 613-7.; Jazayeri, A, Falck, J, Lukas, C, Bartek, J, Smith, GC, Lukas, J et al., (2006) ATM- and cell cycle-dependent regulation of ATR in response to DNA double-strand breaks. Nat Cell Biol 8: 37-45; Liu, JS, Kuo, SR, Beerman, TA and Melendy, T, (2003) Induction of DNA damage responses by adozelesin is S phase-specific and dependent on active replication forks. Mol Cancer Ther 2: 41-7; Ranjan, P and Heintz, NH, (2006) S-phase arrest by reactive nitrogen species is bypassed by okadaic acid, an inhibitor of protein phosphatases PP1/PP2A. Free Radic Biol Med 40: 247-59.). The HCT116 p53+/+ and HCT116 p53-/- cells were exposed for 3 or 6 days to the carrier (DMSO) or to FM19G11 (0.5, 1, 5, 10 µM). […] (Figure 24).
(§2) A- The HCT116/p53+/+ cells and B-HCT116/p53-/- cells were exposed to different concentrations of FM19G11 (0.5, 1, 5, 10 µM) or carrier for 3 or 6 days to analyze the distribution of cells in the different cell cycle phases by means of flow cytometry. […]

[5] = test system: HCT116/p53-/- cells; test: cell cycle distribution by flow cytometry, HCT116/p53-/-; format: cell-based, human; conditions: 0.5, 1, 5, 10 µM, 3 or 6 days
Description: as §1, §2

[6] = test system: mouse neurospheres (neural stem cells); test: microsatellite genomic instability in neurospheres; format: cell-based
Protocol: By using specific fluorescence-labeled primers for microsatellite sequence markers, the genomic stability of neurospheres in normoxia (Nx), hypoxia (Hx) or hypoxia+FM19G11 (Hx+19G11) was analyzed. […] The treatment with FM19G11 enabled the recovery of the normoxia profiles (used as a reference or control), thus preventing the genomic instability caused by hypoxia.

Cc1ccc(C(=O)COC(=O)c2cccc(NC(=O)c3ccc([N+](=O)[O-])cc3[N+](=O)[O-])c2)cc1 [FM19G11, 2-oxo-2-(p-tolyl)ethyl 3-((2,4-dinitro)benzamido)benzoate]
death (decreased in hypoxia) ([1]; 0.5 µM): reverts the decrease in death | number of total apoptotic cells (reduced by hypoxia) ([1]; 0.5 µM, 72 hours): capable of reverting said effect | expression of the tumor suppressor p53 ([1]; hypoxia): recovery of p53 | induced mortality ([2]; 0.5 mM microinjected into the chorionic space, n=15): 20% | viability of the embryos ([2]; 10 microM and 50 microM in the well): does not affect the viability | lethality ([2]; 10 microM and 50 microM in the well, blastula and neurula stages): no significant lethality | phosphorylation of ATR [3]: quick increase | G1/S phase cycle arrest ([4]; 5 or 10 µM, after 72 hours, more evident after 6 days): caused G1/S phase cycle arrest | S phase cycle arrest on simultaneous incubation with rapamycin ([4]; FM19G11 (10 µM) + rapamycin (100 pmol)): prevented | G1/S phase cycle arrest [5]: did not cause a G1/S phase cycle blocking | genomic instability caused by hypoxia (microsatellite markers mBAT59, mBAT67) [6]: prevented
